From ChEMBL document CHEMBL4834431, “Design of Dimeric Bile Acid Derivatives as Potent and Selective Human NTCP Inhibitors” (J Med Chem, 2021) come the findings set out here.

Active and inactive are the calls of the source. The rule behind the calls is not given here.

The test system of data set [1] is Hepatitis B virus. The experiment in a line: Antiviral activity against HBV infected in human HepG2-NTCP cells assessed as reduction in HBeAg secretion preincubated for 2 hrs followed by viral infection by ELISA. It is filed as functional, organism-based.
Data set [2] concerns HepG2. The data set is described as follows: Inhibition of monkey NTCP-mediated NQL-064 uptake expressed in human HepG2 cells. Type of data set: cell-based. The conditions noted are these: Macaca mulatta.
Data set [3] concerns the target Hepatic sodium/bile acid cotransporter (Homo sapiens, UniProt Q14973). The data set is described as follows: Inhibition of human NTCP residues (157 to 165) replaced with monkey NTCP -mediated [3H]-TCA uptake expressed in human HepG2 cells. Type of data set: cell-based.
The target of data set [4] is T1, Hepatic sodium/bile acid cotransporter (Mus musculus, UniProt O08705).
T1 sequence (O08705 whole entry): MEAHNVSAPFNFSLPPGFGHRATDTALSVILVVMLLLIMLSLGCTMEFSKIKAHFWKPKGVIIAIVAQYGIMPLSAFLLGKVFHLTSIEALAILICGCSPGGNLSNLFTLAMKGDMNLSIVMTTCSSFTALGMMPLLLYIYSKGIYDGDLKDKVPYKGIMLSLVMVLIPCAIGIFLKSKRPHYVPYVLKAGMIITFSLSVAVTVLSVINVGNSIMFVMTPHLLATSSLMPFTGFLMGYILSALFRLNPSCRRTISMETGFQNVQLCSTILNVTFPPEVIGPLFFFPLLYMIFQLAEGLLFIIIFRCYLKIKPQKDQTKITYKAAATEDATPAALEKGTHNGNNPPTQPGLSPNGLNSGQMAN
The data set is described as follows: Inhibition of mouse NTCP-mediated NQL-064 uptake expressed in human HepG2 cells. Type of data set: cell-based.

The target in data set [5] is T2, Solute carrier organic anion transporter family member 1B1 (Homo sapiens, UniProt Q9Y6L6).
T2 sequence (Q9Y6L6 whole entry): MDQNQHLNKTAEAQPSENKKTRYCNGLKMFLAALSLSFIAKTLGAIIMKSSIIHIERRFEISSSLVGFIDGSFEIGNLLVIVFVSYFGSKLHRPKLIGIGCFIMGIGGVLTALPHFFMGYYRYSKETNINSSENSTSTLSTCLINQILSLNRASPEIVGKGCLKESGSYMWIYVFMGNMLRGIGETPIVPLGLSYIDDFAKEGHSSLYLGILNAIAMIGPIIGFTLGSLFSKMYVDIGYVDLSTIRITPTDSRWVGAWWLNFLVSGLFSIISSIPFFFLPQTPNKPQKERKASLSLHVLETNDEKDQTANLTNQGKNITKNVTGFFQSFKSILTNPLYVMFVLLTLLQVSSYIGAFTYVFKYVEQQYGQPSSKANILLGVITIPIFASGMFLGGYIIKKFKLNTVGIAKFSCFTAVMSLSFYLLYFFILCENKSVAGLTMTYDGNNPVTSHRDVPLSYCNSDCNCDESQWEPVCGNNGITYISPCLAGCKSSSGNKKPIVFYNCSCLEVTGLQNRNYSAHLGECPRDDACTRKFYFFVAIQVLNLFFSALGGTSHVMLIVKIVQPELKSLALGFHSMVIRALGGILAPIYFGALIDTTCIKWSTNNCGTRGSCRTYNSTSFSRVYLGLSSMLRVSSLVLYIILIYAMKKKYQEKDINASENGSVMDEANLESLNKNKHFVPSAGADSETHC
The data set is described as follows: Inhibition of human OATP1B1-mediated [3H]-Estrone sulfate uptake expressed in human HepG2 cells at 2 uM. Particulars: hepg2, 2 µM. It is filed as cell-based.

Data set [6] concerns HepG2. The experiment in a line: (§1) Inhibition of monkey NTCP-mediated [3H]-TCA uptake expressed in human HepG2 cells. It is filed as cell-based. The conditions noted are these: Macaca mulatta.
Data set [7] is described as follows: as §1. Type of data set: cell-based. Particulars: Macaca mulatta.
Data set [8] deals with T3, Hepatic sodium/bile acid cotransporter (Homo sapiens, UniProt Q14973).
T3 sequence (Q14973 whole entry): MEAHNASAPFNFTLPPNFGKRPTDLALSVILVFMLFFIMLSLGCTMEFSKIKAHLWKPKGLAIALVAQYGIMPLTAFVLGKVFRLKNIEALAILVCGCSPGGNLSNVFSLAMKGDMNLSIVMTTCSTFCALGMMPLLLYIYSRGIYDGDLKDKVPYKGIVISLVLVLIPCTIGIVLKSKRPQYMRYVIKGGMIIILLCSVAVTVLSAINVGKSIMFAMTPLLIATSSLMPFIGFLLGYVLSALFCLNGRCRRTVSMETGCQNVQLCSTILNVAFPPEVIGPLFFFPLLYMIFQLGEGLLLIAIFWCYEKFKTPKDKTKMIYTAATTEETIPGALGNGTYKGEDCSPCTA
The data set is described as follows: Inhibition of human NTCP-mediated NQL-064 uptake expressed in human HepG2 cells. Type of data set: cell-based.

Data set [9] relates to HepG2. The data set is described as follows: Inhibition of tree shrew NTCP-mediated NQ-064 uptake expressed in human HepG2 cells. It is filed as cell-based. Particulars: Scandentia.
Data set [10] concerns the target T3, Hepatic sodium/bile acid cotransporter. The experiment in a line: Inhibition of human NTCP-mediated [3H]-TCA uptake expressed in human HepG2 cells pretreated for 2 hrs followed by [3H]-TCA addition in absence of FBS. It is filed as cell-based.
For data set [11] the target is unchanged. The data set is described as follows: Inhibition of human NTCP-mediated [3H]-TCA uptake expressed in human HepG2 cells at 0.4 to 10 uM incubated for 10 mins by liquid scintillation counter analysis. Particulars: hepg2, 10 min, dose 0.4-10 µM. Type of data set: cell-based.
Data set [12] relates to Hepatitis B virus. The experiment in a line: Antiviral activity against HBV infected in human HepG2-NTCP cells assessed as reduction in HBeAg secretion at 31.25 to 2000 nM incubated for 24 hrs followed by replacement with fresh medium and measured at day 5 post infection by ELISA. Type of data set: functional, organism-based. The conditions noted are these: dose 31.25-2000 nM. (ELISA stands for enzyme-linked immunosorbent assay.)

Take `C[C@H](CCC(=O)NCCS(=O)(=O)O)[C@H]1CC[C@H]2[C@@H]3[C@@H](O)C[C@@H]4C[C@H](NC(=O)CCCC(=O)N[C@@H]5CC[C@@]6(C)[C@@H](C5)C[C@H](O)[C@@H]5[C@@H]6CC[C@]6(C)[C@@H]([C@H](C)CCC(=O)NCCS(=O)(=O)O)CC[C@@H]56)CC[C@]4(C)[C@H]3CC[C@]12C`: the outcome with Hepatitis B virus [1] was inactive. Further, the inhibition result in the data set with HepG2 [2], in the data set on HepG2 [6] and with HepG2 [9] was “inactive” in each case. In addition, the IC50 (in general, the concentration at which inhibition is half-maximal) in [3] came out at 8.35 µM; in [7], 4.77 µM. The entries for the “inhibition (INH)” value in [4], in data set [5] and in [8] were “Not Active”, “Not Active” and “Active”, respectively.

On to `C[C@H](CCC(=O)O[C@@H]1CC[C@@]2(C)[C@@H](C1)C[C@H](O)[C@@H]1[C@@H]2CC[C@]2(C)[C@@H]([C@H](C)CCC(=O)NCCS(=O)(=O)O)CC[C@@H]12)[C@H]1CC[C@H]2[C@@H]3[C@@H](O)C[C@@H]4C[C@H](O)CC[C@]4(C)[C@H]3CC[C@]12C`, for which the outcome in the data set on Hepatitis B virus [1] and in the data set on Hepatitis B virus [12] was Active. Moreover, in data set [10], the IC50 came to 36.2 nM. Also, the figures for the “inhibition (INH)” value in data set [11] and in data set [5] were “Active” and “Not Active”, respectively. The inhibition entry in the data set on HepG2 [6] is “Active”.
